How the values were obtained:
[1] = tested on: AVM cultures; assay: Effects of adenosine and adenosine receptor agonists on Runx2 expression in AVM cultures (qPCR); type: cell-based, mouse; conditions: for expression of Runx2 compared to control cultures: up to 5 days, FIG. 12
Text: Expression was normalized to GAPDH. Average of 3 independent repeats with SEM.
Runx2 expression increases in calcifying AVM cells with time in culture. Cells treated with either 2′-MeCCPA (A1 agonist) or PSB0777 (A2a agonist) up to 5 days.
Adenosine levels were confirmed using HPLC.

[2] = tested on: mouse VIC; assay: Osteogenic markers after mouse VIC incubation with adenosine receptor agonists; type: cell-based; conditions: mouse VIC / AVM cell cultures, FIG. 8
[3] = tested on: AVM cell cultures; assay: qPCR measurement of osteogenic marker expression by AVM cell cultures (ATP, PO4, CD73); type: cell-based, mouse
Text: (§1) Over 5 days, exposure to this concentration of ATP is apoptotic as measured by the ratio of Bax/Bcl2, and this may contribute to calcification.

[4] = tested on: calcifying AVM cells; assay: Runx2-II and Mgp in calcifying AVM cells in the presence of AMP; type: cell-based, mouse; conditions: FIG. 9
[5] = tested on: Alkaline phosphatase (ALP); conditions: aortas incubated in osteogenic medium (Zukowska et al., 2017); cited from earlier work
[6] = tested on: calcifying AVM cell cultures; assay: Runx2 isoform and osteogenic marker expression in calcifying AVM cell cultures with various treatments; type: cell-based, mouse
Procedure: Embryonic precursors of valvular interstitial cells (VICs) calcify when grown as tissue culture aggregates similar to micromass cultures of limb cells developed by (Ahrens et al., 1977). A mouse fetal VIC cell line (AVM cells) obtained from the Immortamouse (gift of Kai Jiao, UAB) were used to investigate calcification. These cells express a temperature sensitive Large T antigen and are immortal at 33° C. and revert to a valvular phenotype at 37° C.
The cell and organ culture models described above are used to study valve calcification by staining and expression of osteogenic markers. […] Both Runx2 isoform levels are elevated concomitant with calcification in vitro and in situ. To explore the relationship between identified regulators and markers of the osteogenic program in calcifying valve tissues, Runx2 isoform and osteogenic marker expression was measured in calcifying AVM cell cultures with various treatments. AVM cultures were treated with siRNA against Runx2-II, noggin (inhibitor of BMP), an anti-TGFβ antibody (against all three isoforms), and DAPT (inhibitor of Notch signaling). […] These indicate that Runx2 is a fairly central player in this calcification process but that Runx2 expression, in these cultures, is independent of TGFβ and BMP signaling.
For cell culture, human and porcine VICs and human valvular endothelial cells (VECs) are used. VICs are expanded from initial culture and stored as aliquots in liquid nitrogen. All experiments are performed with low passage number cells and each cell source is profiled by the UA Genetics Core to confirm and maintain the identity of each cell line. A mouse AV valve mesenchymal cell line (AVM) was obtained from Kai Jao (U. of Ala., Birmingham). These cells were from mice containing a temperature sensitive large T transgene (Immorta-Mouse) and the cells were grown at 33° C. to obtain an immortal cell line (Peng et al., 2017). The cells revert to a cushion/valve phenotype at 37° C. The micromass cultures of Solursh and colleagues (Ahrens et al.,1977) were recapitulated to observe calcification in vitro in this cell system. Calcium deposits became visible by von Kossa staining by 5 days in culture and prominent by day 12 (FIG. 3). […] Marker expression is consistent with a valve calcification phenotype and supports a central role for Runx2 in calcification (FIG. 2). For organ culture of intact valves, fresh aortic pig valves are obtained from the meat lab in the College of Agriculture and incubated on the surface of collagen gels. Experiments compare responses in intact aortic valves and VIC and VEC cell lines. […] Though 19 purinergic receptors are identified in Table 1, those P2Y and P2X receptors that are not found in valve tissues are excluded from further analysis.

[7] = tested on: valve cell cultures; assay: Apoptosis measured by the ratio of Bax/Bcl2 in valve cell cultures; type: cell-based; conditions: 100 μM, over 5 days
Text: as §1

[8] = tested on: micromass cultures; assay: Concentration of adenosine in culture media of micromass cultures after adding recombinant CD73; type: cell-based; parameters: concentration of adenosine in the culture media: unit not given here; conditions: 1 μg/ml, approximately 100,000 cells in a dish

For `Nc1nc(SCCc2ccc(S(=O)(=O)O)cc2)nc2c1ncn2[C@@H]1O[C@H](CO)[C@@H](O)[C@H]1O` [PSB0777], which “expression of Runx2 compared to control cultures” value ([1]; 1 μM) is on record?
The value was “reduced”.

And the “induction of osteogenic markers (Runx2 and MGP)” value [2]?
Its value is “significant induction”.

Which osteogenic markers ([3]; added to culture media, at 12 days, FIG. 13) does the source give for `O=P(O)(O)O` [PO4] here?
Its osteogenic markers is “increases”.

Which “Runx2-II and Mgp” value [4] does the source give for `Nc1ncnc2c1ncn2[C@@H]1O[C@H](COP(=O)(O)O)[C@@H](O)[C@H]1O` [AMP] here?
Its value is “reduced”.

Which results are given for `Nc1ncnc2c1ncn2[C@@H]1O[C@H](CO)[C@@H](O)[C@H]1O` [adenosine]?
Runx2 expression ([1]; AVM cultures at 0.35 μM, 3.5 μM and 50 μM adenosine, normalized to GAPDH, FIG. 11): inhibited at an exposure consistent with the high affinity A1 receptor; Alkaline phosphatase (ALP) activity [5]: reduced

What does the source list for `C[C@H](NC(=O)Cc1cc(F)cc(F)c1)C(=O)N[C@H](C(=O)OC(C)(C)C)c1ccccc1` [DAPT, reference compound]?
Runx2 expression [6]: reduced Runx2 expression; expression of other markers (Twist1, Cbfβ, MGP) [6]: upregulated the other markers

What does the source list for `C[C@@]1(O)[C@H](O)[C@@H](CO)O[C@H]1n1cnc2c(NC3CCCC3)nc(Cl)nc21` [2′-MeCCPA]?
expression of Runx2 compared to control cultures ([1]; 0.1 μM): reduced; induction of osteogenic markers (Runx2 and MGP) [2]: significant induction

Which results are given for `Nc1ncnc2c1ncn2[C@@H]1O[C@H](COP(=O)(O)OP(=O)(O)OP(=O)(O)O)[C@@H](O)[C@H]1O` [ATP]?
apoptosis as ratio of Bax/Bcl2 [7]: apoptotic; osteocalcin and osteopontin ([3]; 100 μM added every 12 hr, at 5 days): large increase; Alkaline phosphatase (ALP) activity [5]: increased

B1: noggin: inhibitor of BMP (protein, UniProt Q13253 28-232, looked up)
Noggin: QHYLHIRPAPSDNLPLVDLIEHPDPIFDPKEKDLNETLLRSLLGGHYDPGFMATSPPEDRPGGGGGAAGGAEDLAELDQLLRQRPSGAMPSEIKGLEFSEGLAQGKKQRLSKKLRRKLQMWLWSQTFCPVLYAWNDLGSRFWPRYVKVGSCFSKRSCSVPEGMVCKPSKSVHLTVLRWRCQRRGGQRCGWIPIQYPIISECKCSC
For B1, which Runx2 expression [6] is on record?
Its Runx2 expression is “little effect”.

What about the “expression of other markers (Twist1, Cbfβ, MGP)” value [6] of the same molecule?
Its value is “lesser effects”.

B2: recombinant CD73: ecto-5′-nucleotidase, converts AMP to adenosine (protein, UniProt P21589 27-549, looked up)
5'-nucleotidase: WELTILHTNDVHSRLEQTSEDSSKCVNASRCMGGVARLFTKVQQIRRAEPNVLLLDAGDQYQGTIWFTVYKGAEVAHFMNALRYDAMALGNHEFDNGVEGLIEPLLKEAKFPILSANIKAKGPLASQISGLYLPYKVLPVGDEVVGIVGYTSKETPFLSNPGTNLVFEDEITALQPEVDKLKTLNVNKIIALGHSGFEMDKLIAQKVRGVDVVVGGHSNTFLYTGNPPSKEVPAGKYPFIVTSDDGRKVPVVQAYAFGKYLGYLKIEFDERGNVISSHGNPILLNSSIPEDPSIKADINKWRIKLDNYSTQELGKTIVYLDGSSQSCRFRECNMGNLICDAMINNNLRHTDEMFWNHVSMCILNGGGIRSPIDERNNGTITWENLAAVLPFGGTFDLVQLKGSTLKKAFEHSVHRYGQSTGEFLQVGGIHVVYDLSRKPGDRVVKLDVLCTKCRVPSYDPLKMDEVYKVILPNFLANGGDGFQMIKDELLRHDSGDQDINVVSTYISKMKVIYPAVEGRIKFS
For B2, which “increase of adenosine concentration in the culture media” value [8] is on record?
Its value is 5 fold.

What about the “concentration of adenosine in the culture media” value ([8]; from 1.7 without enzyme) of the same molecule?
The value was 8.7.

What about the “effects of exogenous ATP (osteogenic markers, apoptosis)” value ([3]; exogenous enzyme added with 100 μM ATP) of the same molecule?
The value was “reduced”.
